The values below come from PMC4865847, “Putative histidine kinase inhibitors with antibacterial effect against multi-drug resistant clinical isolates identified by in vitro and in silico screens” (Scientific Reports, 2016).

By MIC is commonly meant the least concentration at which growth counts as inhibited. As usually defined, the IC50 is the concentration that inhibits the measured activity by half. In general, inhibition refers to the drop in the measured response relative to a control, in per cent. A lower inhibition goes with little suppression.

The test system of one assay is Escherichia coli. Nature of the assay: Antibacterial susceptibility testing (MIC/MBC), E. coli. In kind it is cell-based. Conditions: Escherichia coli. The method, then:
Minimal inhibitory concentrations (MICs) were determined following a standard double-dilution method. […] For S. pneumoniae MICs were determined by adapting the standard double-dilution method to anaerobic conditions and of this microorganism (use of Todd Hewitt Yeast extract with 200 U/mL of catalase and continuous monitoring of growth).

The target in a further assay is T1, S. pneumoniae WalK (Streptococcus pneumoniae, UniProt Q8DPL8).
T1 construct: WalK (amino acids from 208 to 449); N-terminal His6-3C site of vector pOPINF (own knowledge of the vector); made in house; host or cells: E. coli RIL
T1 sequence (Q8DPL8 208-449): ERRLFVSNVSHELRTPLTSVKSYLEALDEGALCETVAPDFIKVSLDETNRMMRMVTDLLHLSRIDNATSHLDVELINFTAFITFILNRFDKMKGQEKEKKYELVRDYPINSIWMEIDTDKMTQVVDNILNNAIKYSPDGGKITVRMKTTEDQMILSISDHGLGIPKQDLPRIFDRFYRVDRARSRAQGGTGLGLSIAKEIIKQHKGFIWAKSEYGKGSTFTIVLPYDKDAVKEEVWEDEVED
Nature of the assay: In vitro autophosphorylation kinase assay with γ-32P-ATP, WalK. In kind it is biochemical. A digest of the protocol: (§1)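 Autophosphorylation, initiated with γ-32P-ATP (0.1 μCi/μl; 0.03–0.06 μM ATP final), quenched with SDS/EDTA sample buffer, resolved by SDS-PAGE and quantified by phosphor-imaging. ≈4 μM kinase, fragments up to 20 mM, pH 8.5 Tris buffer with Mg2+; DMSO-matched ligand-free controls.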

The next assay concerns HK NblS (CA domain). The assay can be described thus: Differential scanning fluorimetry (DSF), NblS. The assay is classed as binding, Synechococcus sp. PCC 7942. The method, then:
(§2) To monitor protein unfolding, the fluorescent dye Sypro orange was used[26]. Differential scanning fluorimetry (DSF) experiments were conducted in the iCycleriQ Real Time Detection System (Bio-Rad, Hercules, CA). Solutions of 20 μl of 0.1 mg/ml protein (final concentration), 200 μM fragment cocktails or individual fragments (final concentration), 10X sypro orange (final concentration) and buffer (100 mM TrisCl pH 8, 150 mM NaCl) were added to the wells of the 96-well iCycler iQ PCR plate. The plate was heated from 20 to 85 or 99 °C at a heating rate of 1 °C/min. The fluorescent intensity was measured with Ex/Em: 490/530 nm. Prism GraphPad v.5 was used for curve fitting and statistical analysis.

The target in assay [1] is T2, HK WalK (DHp and CA domain) (Streptococcus pneumoniae, UniProt Q8DPL8).
T2 construct: WalK (amino acids from 208 to 449); N-terminal His6-3C site of vector pOPINF (own knowledge of the vector); made in house; host or cells: E. coli RIL
T2 sequence (Q8DPL8 208-449): as above
Nature of the assay: Differential scanning fluorimetry (DSF), WalK. The assay is classed as binding. The method, then:
as §2
(Differential scanning fluorimetry follows unfolding on heating by fluorescence.)

In the next assay the target is T3, E. coli EnvZ (Escherichia coli, UniProt P0AEJ4).
T3 construct: The catalytic portion (DHp and CA domain) of E. coli PhoR (PhoR^E), E. coli EnvZ; made in house; host or cells: E. coli RIL
T3 sequence (P0AEJ4 240-440): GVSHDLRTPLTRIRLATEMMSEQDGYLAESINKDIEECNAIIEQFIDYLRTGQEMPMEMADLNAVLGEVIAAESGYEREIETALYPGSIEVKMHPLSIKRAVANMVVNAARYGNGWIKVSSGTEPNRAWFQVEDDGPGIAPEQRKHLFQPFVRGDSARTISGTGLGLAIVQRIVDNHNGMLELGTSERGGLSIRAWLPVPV
Nature of the assay: Aggregation analysis by native-PAGE, EnvZ. Conditions: 2 mM, 10% DMSO. The method, then: E. coli PhoR and EnvZ, and S. aureus PhoR ([…], final concentration) were prepared in kinase buffer. […] DMSO in the assays was maintained to a final concentration 10% (v/v). After 30 min of incubation at room temperature Native polyacrylamide gel electrophoresis (Native-PAGE) loading buffer was added and samples loaded. Coomassie blue staining was used for protein visualization.

The target of the next assay is T4, E. coli PhoR (PhoR^E) (Escherichia coli, UniProt P08400).
T4 construct: The catalytic portion (DHp and CA domain) of E. coli PhoR (PhoR^E); made in house; host or cells: E. coli RIL
T4 sequence (P08400 210-425): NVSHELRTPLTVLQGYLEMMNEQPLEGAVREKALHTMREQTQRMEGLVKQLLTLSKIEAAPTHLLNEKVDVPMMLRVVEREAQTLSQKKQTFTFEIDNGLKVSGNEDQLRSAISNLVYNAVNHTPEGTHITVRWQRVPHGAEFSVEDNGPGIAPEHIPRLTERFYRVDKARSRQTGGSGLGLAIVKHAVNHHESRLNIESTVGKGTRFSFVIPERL
The assay can be described thus: In vitro autophosphorylation kinase assay with γ-32P-ATP, PhoR^E. The assay is classed as biochemical. Conditions: for IC50: autophosphorylation, one time point (30 sec), 10% DMSO; for inhibition at 2000 µM: 2 mM, 30 sec, compared to negative control. A digest of the protocol:
as §1

A further assay relates to Gram negative strains. Nature of the assay: Antibacterial susceptibility testing, Gram negative strains (summary). In kind it is cell-based. Conditions: read-out: MIC Gram negative. The method, then:
(§3) Bacterial strains used in this study for antibacterial susceptibility testing (Table S5) were propagated using standard microbiological procedures. Minimal inhibitory concentrations (MICs) were determined following a standard double-dilution method. MICs were recorded as the lowest concentration of the compound where no visible growth was observed. After plating the dilutions around the MIC or growing them in fresh MH media, minimal bactericidal concentration (MBC) was recorded as the lowest concentration of the compound at which no colonies were formed or no growth was observed, respectively. For S. pneumoniae MICs were determined by adapting the standard double-dilution method to anaerobic conditions and of this microorganism (use of Todd Hewitt Yeast extract with 200 U/mL of catalase and continuous monitoring of growth).

In another assay the test system is Gram positive strains. Nature of the assay: Antibacterial susceptibility testing, Gram positive strains (summary). The assay is classed as cell-based. The method, then: as §3
The subject of the next assay is NCI-60 tumor cell lines. On the set-up: method as in PMID 11121759. The conditions noted are these: 2.72 μg/ml (10 μM), one dose; maximum over cell lines; cited from earlier work.
[2] abbreviates: ATCC25276, strain ATCC 25276, read-out: MIC E. coli ATCC 25276.
[3] abbreviates: strain CFT 073, read-out: MIC E. coli CFT 073.

Structures are written as SMILES. Values joined by “and” are separate entries in the source; they are usually repeats but may differ in a detail not shown here. Equal entries are not always repeated. Where two headings read alike, the source gives them in different places.

As to `Nc1nc(-c2ccc(Br)cc2)cs1` [F1, 4-(4-bromophenyl)-1,3-thiazol-2-amine], the minimum inhibitory concentration (MIC) in the assay with Escherichia coli (setting [2]) and in the assay with Escherichia coli (setting [3]) was more than 500 µg/mL in each case. Besides, the 50% inhibitory concentration (IC50) is more than 2000 µM at S. pneumoniae WalK (autophosphorylation, one time point (30 sec), 10% DMSO, read-out: IC50 WalK); ~2000 µM and 2000 µM at E. coli PhoR (PhoR^E) (read-out: IC50 PhoR^E). The “inhibitory capacity for WalK autophosphorylation activity” value against S. pneumoniae WalK (single concentration 5 mM, 30 sec) is given as “weak inhibitory capacity”. Further, in the assay with HK NblS (CA domain), the “increase of NblS Tm” value stood at 2.1 °C. The “increase of WalK Tm” value in assay [1] amounted to 4.5 °C. Also, the “HK aggregation, EnvZ” value at E. coli EnvZ is “do not cause HK aggregation”.
Consider `CC(=O)Nc1cccc(-c2ccccc2Cl)c1` [S1.7, N-[3-(2-chlorophenyl)phenyl]acetamide], for which the minimum inhibitory concentration (MIC) with Escherichia coli (setting [2]) and in the assay with Escherichia coli (setting [3]) was more than 500 µg/mL in each case. This compound registered an inhibition at 2000 µM against E. coli PhoR (PhoR^E) of more than 40%. For the same compound, on E. coli PhoR (PhoR^E) (IC50 PhoR^E), the IC50 was 100 µM and ~100 µM.
For the compound `CC[C@H](c1ccc(O)cc1)[C@@H](CC)c1ccc(F)cc1` [S1.13, 4-[(3S,4R)-4-(4-fluorophenyl)hexan-3-yl]phenol], the MIC with Escherichia coli (setting [2]) was more than 500 µg/mL; in the assay with Escherichia coli (setting [3]) it was more than 500 µg/mL; in the assay with Gram negative strains it was more than 500 µg/mL; against Gram positive strains (summary over Gram positive strains) it was not below 8 µg/mL. Also, in the assay with Gram positive strains (Staphylococcus aureus, MRSA, summary, read-out: MBCs against Gram-positives, including multi-drug resistant MRSA), the MBC is not above 16 µg/mL. The same compound returned an inhibition at 2000 µM against E. coli PhoR (PhoR^E) of more than 75%. The half-maximal inhibitory concentration (IC50) on E. coli PhoR (PhoR^E) (read-out: IC50 PhoR^E) was determined as 16 µM. Besides, in the assay with NCI-60 tumor cell lines, the “growth inhibition of NCI-60 cell lines” value is given as not above 19%.
As for `CC(C)(C)c1ccc(O)c(CNc2ccccc2)c1` [S1.14, 4-tert-butyl-2-[(phenylamino)methyl]phenol], the minimal inhibitory concentration (MIC) with Escherichia coli (setting [2]) and with Escherichia coli (setting [3]) was more than 500 µg/mL in each case. The compound further returned an inhibition at 2000 µM at E. coli PhoR (PhoR^E) of more than 40%. Further, at E. coli PhoR (PhoR^E) (read-out: IC50 PhoR^E), the IC50 is more than 2000 µM.
